From ChEMBL document CHEMBL1201862, “PubChem BioAssay data set” (2004)
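Values below derive from 48-hour exposures of cells grown in 96-well plates, with endpoints linearly interpolated between the two concentrations bracketing the appropriate inhibition level. GI50 marks 50% less growth.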 Active and inactive are the calls of the source. Cut-off read from the data, not from the text of the source: active = GI50 up to about 1.1 µM and inactive = higher.

Legend:
Experiment in all cases: growth of human tumour cells (NCI), 48 h
[1] = tested on: 786-0
[2] = tested on: A498
[3] = tested on: A549
[4] = tested on: ACHN
[5] = tested on: BT-549
[6] = tested on: CAKI-1
[7] = tested on: CCRF-CEM
[8] = tested on: COLO 205
[9] = tested on: DU-145
[10] = tested on: EKVX
[11] = tested on: HCC 2998
[12] = tested on: HCT-116
[13] = tested on: HCT-15
[14] = tested on: HL-60
[15] = tested on: HOP-62
[16] = tested on: HOP-92
[17] = tested on: HT-29
[18] = tested on: Hs-578T
[19] = tested on: IGROV-1
[20] = tested on: K562
[21] = tested on: KM12
[22] = tested on: LOX IMVI
[23] = tested on: M14
[24] = tested on: MCF7
[25] = tested on: MDA-MB-231
[26] = tested on: MDA-MB-435
[27] = tested on: MDA-N
[28] = tested on: MOLT-4
[29] = tested on: Malme-3M
[30] = tested on: NCI-H226
[31] = tested on: NCI-H23
[32] = tested on: NCI-H460
[33] = tested on: NCI-H522
[34] = tested on: NCI/ADR-RES
[35] = tested on: OVCAR-3
[36] = tested on: OVCAR-4
[37] = tested on: OVCAR-5
[38] = tested on: OVCAR-8
[39] = tested on: PC-3
[40] = tested on: RPMI-8226
[41] = tested on: RXF 393
[42] = tested on: SF-268
[43] = tested on: SF-295
[44] = tested on: SF-539
[45] = tested on: SK-MEL-28
[46] = tested on: SK-MEL-2
[47] = tested on: SK-MEL-5
[48] = tested on: SK-OV-3
[49] = tested on: SN12C
[50] = tested on: SNB-19
[51] = tested on: SNB-75
[52] = tested on: SR
[53] = tested on: SW-620
[54] = tested on: T47D
[55] = tested on: TK-10
[56] = tested on: U-251
[57] = tested on: UACC-257
[58] = tested on: UACC-62
[59] = tested on: UO-31

SMILES: C=CCSS/C=C/C[S+]([O-])CC=C (centres undefined) [AJOENE]
- GI50 [1]: 18.3 µM (inactive)
- GI50 [2]: > 100 µM (inactive)
- GI50 [3]: 61 µM (inactive)
- GI50 [4]: 51.1 µM (inactive)
- GI50 [5]: 25.6 µM (inactive)
- GI50 [6]: 26.9 µM (inactive)
- GI50 [7]: 3.44 µM (inactive)
- GI50 [8]: 24.7 µM (inactive)
- GI50 [9]: 68.2 µM (inactive)
- GI50 [10]: > 100 µM (inactive)
- GI50 [11]: 63.1 µM (inactive)
- GI50 [12]: 13.1 µM (inactive)
- GI50 [13]: 35.5 µM
- GI50 [14]: 5.05 µM (inactive)
- GI50 [15]: > 100 µM (inactive)
- GI50 [16]: 48.3 µM (inactive)
- GI50 [17]: 29.9 µM (inactive)
- GI50 [18]: 26.4 µM (inactive)
- GI50 [19]: 43.4 µM (inactive)
- GI50 [20]: 5.83 µM (inactive)
- GI50 [21]: 57.8 µM (inactive)
- GI50 [22]: 14.6 µM (inactive)
- GI50 [23]: 20.9 µM (inactive)
- GI50 [24]: 44.2 µM (inactive)
- GI50 [25]: 25.2 µM (inactive)
- GI50 [26]: 18.2 µM (inactive)
- GI50 [27]: 18.8 µM (inactive)
- GI50 [28]: 3.95 µM (inactive)
- GI50 [29]: 49.2 µM (inactive)
- GI50 [30]: 41.3 µM (inactive)
- GI50 [31]: 46.6 µM (inactive)
- GI50 [32]: 35.8 µM (inactive)
- GI50 [33]: 16.7 µM (inactive)
- GI50 [34]: 26.2 µM (inactive)
- GI50 [35]: 37.1 µM (inactive)
- GI50 [36]: > 54.8 µM (inactive)
- GI50 [37]: 36.6 µM (inactive)
- GI50 [38]: 18.5 µM (inactive)
- GI50 [39]: 39.1 µM (inactive)
- GI50 [40]: 10.4 µM (inactive)
- GI50 [41]: 24.9 µM (inactive)
- GI50 [42]: 25 µM (inactive)
- GI50 [43]: 58.7 µM (inactive)
- GI50 [44]: 25 µM (inactive)
- GI50 [45]: 20.7 µM (inactive)
- GI50 [46]: > 52.2 µM (inactive)
- GI50 [47]: 36.6 µM (inactive)
- GI50 [48]: 64 µM (inactive)
- GI50 [49]: 26 µM (inactive)
- GI50 [50]: > 100 µM (inactive)
- GI50 [51]: 70 µM (inactive)
- GI50 [52]: 12.4 µM (inactive)
- GI50 [53]: 7.8 µM (inactive)
- GI50 [54]: > 56.1 µM (inactive)
- GI50 [55]: > 85.7 µM (inactive)
- GI50 [56]: 60 µM (inactive)
- GI50 [57]: 50.9 µM (inactive)
- GI50 [58]: 36.3 µM (inactive)
- GI50 [59]: 37.8 µM (inactive)
